In PMC5404560, “Towards Selective Mycobacterial ClpP1P2 Inhibitors with Reduced Activity against the Human Proteasome” (Antimicrobial Agents and Chemotherapy, 2017):
Values joined by “and” are separate entries in the source; they are usually repeats but may differ in a detail not shown here. Equal values may be shown once. Read-outs that look alike come from different tables or passages of the source.

Key:
[1] = molecular target: ClpP1P2 (Mycolicibacterium smegmatis, UniProt A0R197+A0R198); experiment: ClpP1P2 inhibition whole-cell RFP-SsrA reporter assay; details: 3 h incubation
[2] = test system: M. smegmatis ΔprcAB; assay type: cell-based; details: for M. smegmatis ΔprcAB MIC50: 24 h exposure, OD600, concentration inhibiting 50% of growth; for improvement of bacterial-growth inhibition compared to compound 1: M. smegmatis ΔprcAB
[3] = molecular target: HepG2 proteasome (Homo sapiens, UniProt P20618+P28074); experiment: Cell-based proteasome CT-like peptidase inhibition assay (Proteasome-Glo)
Method: A cell-based CT-like peptidase assay was performed using the Proteasome-Glo cell-based assay reagent (Promega) according to the manufacturer's guidelines. Briefly, HepG2 cells (10^4 cells/well) were treated with the compounds indicated in the figures for 2 h, followed by incubation with the luminescent substrate for 10 min. Luminescence was detected with a Tecan M200 Pro plate reader.

[4] = M. smegmatis ΔprcAB IC50 (μM) for ClpP1P2, whole-cell RFP-SsrA reporter
[5] = read-out: M. smegmatis ΔprcAB IC50 (μM) for ClpP1P2, whole-cell RFP-SsrA reporter
[6] = read-out: IC50 (μM) for HepG2 proteasome, HepG2 cells, 2 h treatment, chymotrypsin-like site

ClpP1P2, sequence (A0R198 4-203): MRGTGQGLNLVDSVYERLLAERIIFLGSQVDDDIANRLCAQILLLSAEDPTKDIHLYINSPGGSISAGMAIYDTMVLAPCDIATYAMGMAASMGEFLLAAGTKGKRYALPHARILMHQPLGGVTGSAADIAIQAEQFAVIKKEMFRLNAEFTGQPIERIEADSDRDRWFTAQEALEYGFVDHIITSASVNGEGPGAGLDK
ClpP1P2, sequence (A0R197 17-218): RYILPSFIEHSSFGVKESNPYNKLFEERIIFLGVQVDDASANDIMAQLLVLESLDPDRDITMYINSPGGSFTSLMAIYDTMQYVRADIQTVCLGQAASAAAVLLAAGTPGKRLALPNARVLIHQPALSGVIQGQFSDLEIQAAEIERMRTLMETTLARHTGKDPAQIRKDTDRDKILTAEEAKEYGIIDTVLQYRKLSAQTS

With `O=C(N[C@@H](Cc1ccccc1)C(=O)N[C@@H](CC1CCCCC1)B(O)O)c1cnccn1` (mixture of isomers) [Compound 29, ((R)-2-cyclohexyl-1-((S)-3-phenyl-2-(pyrazine-2-carboxamido)propanamido)ethyl)boronic acid] the IC50 [1, 4] was 27 ± 16 µM, the “M. smegmatis ΔprcAB MIC50” value [2] was 22.5 ± 2.5 µM and the IC50 [3] was 0.127 ± 0.002 µM.
With `CC(C)C[C@H](NC(=O)[C@H](Cc1ccccc1)NC(=O)Cc1ccccc1)B(O)O` (mixture of isomers) [Compound 34, ((R)-3-methyl-1-((S)-3-phenyl-2-(2-phenylacetamido)propanamido)butyl)boronic acid] the IC50 [1, 4] was 9 ± 3 µM, the “M. smegmatis ΔprcAB MIC50” value [2] was 12 ± 0 µM and the IC50 [3] was 0.006 ± 0.001 µM.
In the case of `CC(C)C[C@H](NC(=O)[C@H](Cc1ccccc1)NC(=O)c1cnc(-c2ccccc2)nc1)B(O)O` (mixture of isomers) [Compound 38, ((R)-3-methyl-1-((S)-3-phenyl-2-(2-phenylpyrimidine-5-carboxamido)propanamido)butyl)boronic acid], the IC50 [1, 4] is reported as 1.7 ± 1 µM, the “M. smegmatis ΔprcAB MIC50” value [2] is reported as 2 ± 0 µM and the IC50 [3] is reported as 0.006 ± 0.001 µM.
`CC(C)C[C@H](NC(=O)[C@H](Cc1ccccc1)NC(=O)c1ncc(-c2ccccc2)o1)B(O)O` (mixture of isomers) [Compound 42, ((R)-3-methyl-1-((S)-3-phenyl-2-(5-phenyloxazole-2-carboxamido)propanamido)butyl)boronic acid] was tested, and the IC50 [1, 4] was 6.7 ± 4.1 µM, the “M. smegmatis ΔprcAB MIC50” value [2] was 8 ± 0 µM and the IC50 [3] was 0.006 ± 0.001 µM.
With `CC(C)C[C@H](NC(=O)CCc1ccccc1)B(O)O` [Compound 25, (R)-(3-methyl-1-(3-phenylpropanamido)butyl)boronic acid] the IC50 [1, 4] was greater than 200 µM, the “M. smegmatis ΔprcAB MIC50” value [2] was greater than 200 µM and the IC50 [3] was 0.25 µM.
`CC(C)C[C@H](NC(=O)[C@@H](N)Cc1ccccc1)B(O)O` [Compound 26, ((R)-1-((S)-2-amino-3-phenylpropanamido)-3-methylbutyl)boronic acid] was tested, and the IC50 [1, 4] was greater than 200 µM, the “M. smegmatis ΔprcAB MIC50” value [2] was 100 ± 0 µM and the IC50 [3] was 0.08 ± 0.01 µM.
In the case of `CCCCC[C@H](NC(=O)[C@H](Cc1ccccc1)NC(=O)c1cnccn1)B(O)O` [Compound 27, ((R)-1-((S)-3-phenyl-2-(pyrazine-2-carboxamido)propanamido)hexyl)boronic acid], the IC50 [1, 4] is reported as 4 µM, the “M. smegmatis ΔprcAB MIC50” value [2] is reported as 3 ± 0 µM and the “improvement of bacterial-growth inhibition compared to compound 1” value [2] is reported as 2 fold. The IC50 [3] was 0.03 µM.
For `O=C(N[C@@H](Cc1ccccc1)C(=O)N[C@H](B(O)O)C1CCCCC1)c1cnccn1` [Compound 28, ((R)-cyclohexyl((S)-3-phenyl-2-(pyrazine-2-carboxamido)propanamido)methyl)boronic acid], the IC50 [1, 4] was 33 ± 12 µM, the “M. smegmatis ΔprcAB MIC50” value [2] was 16 ± 4 µM and the IC50 [3] was 0.155 ± 0.025 µM.
In the case of `O=C(N[C@@H](Cc1ccccc1)C(=O)N[C@@H](CCC1CCCCC1)B(O)O)c1cnccn1` [Compound 30, ((R)-3-cyclohexyl-1-((S)-3-phenyl-2-(pyrazine-2-carboxamido)propanamido)propyl)boronic acid], the IC50 [1, 4] is reported as 25 µM, the “M. smegmatis ΔprcAB MIC50” value [2] is reported as 3.5 µM and 3.5 ± 0.5 µM and the IC50 [3] is reported as 0.5 ± 0.01 µM.
In the case of `CC(=O)N[C@@H](Cc1ccccc1)C(=O)N[C@@H](CC(C)C)B(O)O` [Compound 33, ((R)-1-((S)-2-acetamido-3-phenylpropanamido)-3-methylbutyl)boronic acid], the IC50 [1, 4] is reported as 42 µM and 41.7 µM, the “M. smegmatis ΔprcAB MIC50” value [2] is reported as 50 ± 0 µM and the IC50 [3] is reported as 0.01 ± 0.005 µM.
`CC(C)C[C@H](NC(=O)[C@H](Cc1ccccc1)NC(=O)c1ccccc1)B(O)O` [Compound 35, ((R)-1-((S)-2-benzamido-3-phenylpropanamido)-3-methylbutyl)boronic acid] was tested, and the IC50 [1, 4] was 3.3 ± 0.5 µM, the “M. smegmatis ΔprcAB MIC50” value [2] was 3.5 ± 0.5 µM and the IC50 [3] was 0.006 ± 0.001 µM.
For `CC(C)C[C@H](NC(=O)[C@H](Cc1ccccc1)NC(=O)c1cccnc1)B(O)O` [Compound 36, ((R)-3-methyl-1-((S)-2-(nicotinamido)-3-phenylpropanamido)butyl)boronic acid], the IC50 [1, 4] was 4 ± 1.4 µM, the “M. smegmatis ΔprcAB MIC50” value [2] was 6 ± 0 µM and the IC50 [3] was 0.03 µM.
With `CC(C)C[C@H](NC(=O)[C@H](Cc1ccccc1)NC(=O)c1ccccn1)B(O)O` [Compound 37, ((R)-3-methyl-1-((S)-3-phenyl-2-(picolinamido)propanamido)butyl)boronic acid] the IC50 [1, 4] was 17 ± 5.7 µM, the “M. smegmatis ΔprcAB MIC50” value [2] was 15 ± 0 µM and the IC50 [3] was 0.006 ± 0.001 µM.
In the case of `CC(C)C[C@H](NC(=O)[C@H](Cc1ccccc1)NC(=O)c1cc(-c2ccccc2)ncn1)B(O)O` [Compound 39, ((R)-3-methyl-1-((S)-3-phenyl-2-(6-phenylpyrimidine-4-carboxamido)propanamido)butyl) boronic acid], the IC50 [1, 4] is reported as greater than 200 µM, the “M. smegmatis ΔprcAB MIC50” value [2] is reported as greater than 200 µM and the IC50 [3] is reported as 0.006 ± 0.001 µM.
For `CC(C)C[C@H](NC(=O)[C@H](Cc1ccccc1)NC(=O)c1cccc2ncsc12)B(O)O` [Compound 43], the IC50 [1, 4] was 2.75 ± 1.25 µM, the “M. smegmatis ΔprcAB MIC50” value [2] was 3 ± 0 µM and the “improvement of bacterial-growth inhibition compared to compound 1” value [2] was 2 fold. For the same compound, the IC50 [3] was 0.006 ± 0.001 µM.
For `CC(C)C[C@H](NC(=O)[C@H](Cc1ccccc1)NC(=O)[C@H](Cc1ccccc1)NC(=O)c1cnccn1)B(O)O` [Compound 44], the IC50 [1, 4] was greater than 200 µM, the “M. smegmatis ΔprcAB MIC50” value [2] was 75 ± 0 µM and the IC50 [3] was 0.006 ± 0.001 µM.
With `CC(C)C[C@H](NC(=O)[C@H](Cc1ccccc1)NC(=O)N1CCCCC1)B(O)O` [Compound 45, ((R)-3-methyl-1-((S)-3-phenyl-2-(piperidine-1-carboxamido)propanamido)butyl)boronic acid] the IC50 [1, 4] was 22.5 ± 2.5 µM, the “M. smegmatis ΔprcAB MIC50” value [2] was 19 ± 5.4 µM and the IC50 [3] was 0.023 ± 0.008 µM.
`CC(=O)N[C@@H](Cc1ccccc1)C(=O)N[C@@H](Cc1ccccc1)B(O)O` [Compound 46, ((R)-1-((S)-2-acetamido-3-phenylpropanamido)-2-phenylethyl)boronic acid] was tested, and the IC50 [1, 4] was 50 µM, the “M. smegmatis ΔprcAB MIC50” value [2] was 50 ± 0 µM and the IC50 [3] was 0.218 ± 0.158 µM.
In the case of `O=C(N[C@@H](Cc1ccccc1)C(=O)N[C@@H](CCC1CCCCC1)B(O)O)c1cccc2ncsc12` [Compound 47, ((R)-1-((S)-2-(benzo[d]thiazole-7-carboxamido)-3-phenylpropanamido)-3-cyclohexylpropyl)boronic acid], the IC50 [1, 4] is reported as greater than 200 µM, the “M. smegmatis ΔprcAB MIC50” value [2] is reported as greater than 200 µM and the IC50 [3] is reported as 0.288 ± 0.088 µM.
For `O=C(N[C@@H](Cc1ccccc1)C(=O)N[C@@H](CCC1CCCCC1)B(O)O)c1ccccc1` [Compound 48, ((R)-1-((S)-2-benzamido-3-phenylpropanamido)-3-cyclohexylpropyl)boronic acid], the IC50 [1, 4] was greater than 200 µM, the “M. smegmatis ΔprcAB MIC50” value [2] was greater than 200 µM and the IC50 [3] was greater than 0.5 µM.
For `O=C(N[C@@H](Cc1ccccc1)C(=O)N[C@@H](CCC1CCCCC1)B(O)O)c1ccccc1F` [Compound 49, ((R)-3-cyclohexyl-1-((S)-2-(2-fluorobenzamido)-3-phenylpropanamido)propyl)boronic acid], the IC50 [1, 4] was greater than 200 µM, the “M. smegmatis ΔprcAB MIC50” value [2] was greater than 200 µM and the IC50 [3] was 0.5 µM.
In the case of `CC(C)(C(=O)N[C@@H](Cc1ccccc1)C(=O)N[C@@H](CCC1CCCCC1)B(O)O)n1cccc1` [Compound 50, ((R)-3-cyclohexyl-1-((S)-2-(2-methyl-2-(1H-pyrrol-1-yl)propanamido)-3-phenylpropanamido)propyl)boronic acid], the IC50 [1, 4] is reported as 200 µM, the “M. smegmatis ΔprcAB MIC50” value [2] is reported as 150 ± 0 µM and the IC50 [3] is reported as greater than 0.5 µM.
For `O=C(N[C@@H](Cc1ccccc1)C(=O)N[C@@H](CCc1ccccc1)B(O)O)c1ccc(C(F)(F)F)cc1` [Compound 52, ((R)-3-phenyl-1-((S)-3-phenyl-2-(4-(trifluoromethyl)benzamido)propanamido)propyl)boronic acid], the IC50 [1, 4] was 12 µM, the “M. smegmatis ΔprcAB MIC50” value [2] was 11 ± 1 µM and the IC50 [3] was 0.1 µM.
In the case of `O=C(N[C@@H](Cc1ccccc1)C(=O)N[C@@H](CCc1ccccc1)B(O)O)c1ccccc1F` [Compound 53, ((R)-1-((S)-2-(2-fluorobenzamido)-3-phenylpropanamido)-3-phenylpropyl)boronic acid], the IC50 [1, 4] is reported as 4.5 µM, the “M. smegmatis ΔprcAB MIC50” value [2] is reported as 7 ± 3 µM and the IC50 [3] is reported as 0.2 µM.
For `CC(C)(C(=O)N[C@@H](Cc1ccccc1)C(=O)N[C@@H](CCc1ccccc1)B(O)O)n1cccc1` [Compound 54, ((R)-1-((S)-2-(2-methyl-2-(1H-pyrrol-1-yl)propanamido)-3-phenylpropanamido)-3-phenylpropyl)boronic acid], the IC50 [1, 4] was 25 µM, the “M. smegmatis ΔprcAB MIC50” value [2] was 30 ± 0 µM and the IC50 [3] was 0.5 µM.
In the case of `O=C(N[C@@H](Cc1ccccc1)C(=O)N[C@@H](CCc1ccccc1)B(O)O)c1cnc(-c2ccccc2)nc1` [Compound 55, ((R)-3-phenyl-1-((S)-3-phenyl-2-(2-phenylpyrimidine-5-carboxamido)propanamido)propyl)boronic acid], the IC50 [1, 4] is reported as 6 µM, the “M. smegmatis ΔprcAB MIC50” value [2] is reported as 5.5 ± 0.5 µM and the IC50 [3] is reported as 0.06 µM.
`CC(C)C[C@H](NC(=O)[C@H](C)NC(=O)c1cnccn1)B(O)O` [Compound 56, ((R)-3-methyl-1-((S)-2-(pyrazine-2-carboxamido)propanamido)butyl)boronic acid] was tested, and the IC50 [1, 4] was 100 µM, the “M. smegmatis ΔprcAB MIC50” value [2] was 76.7 ± 20.5 µM and the IC50 [3] was 0.225 ± 0.025 µM.
“((R)-1-((S)-2-(indolizine-2-carboxamido)-3-phenylpropanamido)-3-methylbutyl)boronic acid [Compound 40]” was tested, and the IC50 [1, 5] was 9 ± 3 µM, the “M. smegmatis ΔprcAB MIC50” value [2] was 8.3 ± 4.5 µM and the IC50 [3, 6] was 0.023 ± 0.008 µM.
With “((R)-1-((S)-2-(indolizine-3-carboxamido)-3-phenylpropanamido)-3-methylbutyl)boronic acid [Compound 41]” the IC50 [1, 5] was 11.3 ± 0.9 µM, the “M. smegmatis ΔprcAB MIC50” value [2] was 15 ± 0 µM and the IC50 [3, 6] was 0.006 ± 0.001 µM.
